The text below walks through data of US20220356174A1, “PYRIDIN-2-ONE COMPOUNDS USEFUL AS SMARCA2 ANTAGONISTS” (Epizyme, Inc., priority 2018, published 2022).

SMILES strings stand for the structures.

For the first test, the target named is FL-SMARCA4 (Homo sapiens, UniProt P51532). Description: SMARCA4 ATPase activity assay (ADP-Glo, chicken mononucleosome substrate). Conditions: FL-SMARCA4 IC50. A general note: ADP-Glo first removes unused ATP, then detects ADP through luciferase.
Sequence of FL-SMARCA4 (P51532 whole entry): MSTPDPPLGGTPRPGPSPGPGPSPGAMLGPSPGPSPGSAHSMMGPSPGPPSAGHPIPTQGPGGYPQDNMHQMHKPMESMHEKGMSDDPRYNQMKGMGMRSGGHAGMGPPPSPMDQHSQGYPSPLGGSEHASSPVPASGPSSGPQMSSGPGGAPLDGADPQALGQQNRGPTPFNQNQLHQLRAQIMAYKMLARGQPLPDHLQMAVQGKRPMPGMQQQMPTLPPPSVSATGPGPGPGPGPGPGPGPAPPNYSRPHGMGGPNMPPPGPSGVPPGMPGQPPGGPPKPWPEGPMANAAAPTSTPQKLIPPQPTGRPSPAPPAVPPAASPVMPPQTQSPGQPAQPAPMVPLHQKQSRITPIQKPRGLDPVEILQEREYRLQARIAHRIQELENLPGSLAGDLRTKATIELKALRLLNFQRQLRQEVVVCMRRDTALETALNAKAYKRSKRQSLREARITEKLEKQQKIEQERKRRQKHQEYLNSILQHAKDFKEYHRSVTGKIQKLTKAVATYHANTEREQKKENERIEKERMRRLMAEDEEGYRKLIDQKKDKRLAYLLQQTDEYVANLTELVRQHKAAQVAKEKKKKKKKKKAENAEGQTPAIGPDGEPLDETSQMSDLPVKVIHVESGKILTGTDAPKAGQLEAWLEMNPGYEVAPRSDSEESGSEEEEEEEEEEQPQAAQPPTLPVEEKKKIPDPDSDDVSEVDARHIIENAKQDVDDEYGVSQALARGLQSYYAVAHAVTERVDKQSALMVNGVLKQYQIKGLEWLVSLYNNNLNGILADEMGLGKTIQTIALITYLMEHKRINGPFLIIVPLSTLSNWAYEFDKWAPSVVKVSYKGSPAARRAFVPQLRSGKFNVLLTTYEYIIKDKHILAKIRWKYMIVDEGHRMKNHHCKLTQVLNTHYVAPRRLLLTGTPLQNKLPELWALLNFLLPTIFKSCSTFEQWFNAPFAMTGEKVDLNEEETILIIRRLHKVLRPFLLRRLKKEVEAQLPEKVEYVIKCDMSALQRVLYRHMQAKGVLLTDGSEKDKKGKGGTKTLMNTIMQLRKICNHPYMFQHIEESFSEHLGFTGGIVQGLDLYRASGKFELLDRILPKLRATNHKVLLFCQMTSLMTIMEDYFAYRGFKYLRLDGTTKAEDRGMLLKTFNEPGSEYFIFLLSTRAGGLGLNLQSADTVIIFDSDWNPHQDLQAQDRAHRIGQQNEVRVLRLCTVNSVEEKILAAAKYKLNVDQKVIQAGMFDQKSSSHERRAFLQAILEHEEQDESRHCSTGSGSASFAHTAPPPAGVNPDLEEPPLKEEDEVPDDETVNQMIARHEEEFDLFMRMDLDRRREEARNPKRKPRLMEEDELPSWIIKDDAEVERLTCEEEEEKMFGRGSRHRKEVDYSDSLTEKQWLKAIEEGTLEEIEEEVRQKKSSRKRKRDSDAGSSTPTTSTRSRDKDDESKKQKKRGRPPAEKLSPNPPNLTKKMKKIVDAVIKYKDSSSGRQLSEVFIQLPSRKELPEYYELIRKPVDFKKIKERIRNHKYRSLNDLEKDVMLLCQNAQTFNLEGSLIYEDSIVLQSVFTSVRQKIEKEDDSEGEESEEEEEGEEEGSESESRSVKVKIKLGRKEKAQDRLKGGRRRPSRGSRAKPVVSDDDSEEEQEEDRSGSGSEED
`O=C(Nc1cc(F)c(=O)n(CC(F)F)c1)c1cc(Cl)c(C#Cc2cccnc2)s1` [Compound 53d] displayed an IC50 greater than 50 µM.

In the case of `O=C(Nc1cc(F)c(=O)n(CC(F)F)c1)c1nc(Cl)c(Cl)[nH]1` [Compound 39d], the IC50 is greater than 50 µM.

`CCn1c(C)c(NC(=O)c2cc(Cl)c(Cl)s2)ccc1=O` [Compound 25d] came in with an IC50 greater than 50 µM.

`COc1ncc(F)cc1C(=O)Nc1cc(F)c(=O)n(CC(F)F)c1` [Compound 41d] returned an IC50 greater than 50 µM.

The test is the same for the next values; noted with them: FL-SMARCA4 IC50, Table 3a.2; SMARCA4 5 nM, ATP 250 uM, mononucleosome 10 nM.
On to `CCn1cc(NC(=O)c2cncc(Cl)c2)ccc1=O` [Compound 17a], for which the IC50 is greater than 50 µM.

For `COc1ccc2cc(C(=O)Nc3cc(F)c(=O)n(CCF)c3)[nH]c2c1` [Compound 65a], the IC50 worked out at 27 µM.

Take `CCn1cc(NC(=O)n2cc3ccccc3n2)ccc1=O` [Compound 39a]: the IC50 was greater than 50 µM.

In the case of `CCn1cc(NC(=O)c2ccc3cn[nH]c3n2)ccc1=O` [Compound 38a], the IC50 is greater than 50 µM.

Compound `CCn1cc(NC(=O)c2ccc3ccccc3n2)ccc1=O` [Compound 26a] yielded an IC50 greater than 50 µM.

Compound `CCn1cc(NC(=O)c2cc3c(n2C)CCC3)ccc1=O` [Compound 34a] came in with an IC50 greater than 50 µM.

Compound `C[C@H]1OCC(=O)N(Cc2ccccc2)[C@@H]1C(=O)Nc1ccc(=O)n(C)c1` [Compound 7a] gave an IC50 greater than 50 µM.

Turning to `CC(C)COc1ncccc1C(=O)Nc1cc(Cl)c(=O)n(C)c1` [Compound 2a], the IC50 was greater than 50 µM.

`O=C(Nc1cc(F)c(=O)n(CCF)c1)N1CCCC1` [Compound 52a] yielded an IC50 greater than 50 µM.

In the case of `CO[C@@H]1CN[C@H](C(=O)Nc2cc(Br)c(=O)n(C)c2)C1` [Compound 9a], the IC50 is greater than 50 µM.

The same test, now with this note: FL-SMARCA4 IC50, Table 3.2; ATPase assay, enzyme 5 nM, ATP 250 uM, chicken mononucleosome 10 nM, 30 min preincubation.
Regarding `O=C(Nc1ccc(=O)n(CC(F)F)c1)c1cc(Cl)c(Cl)s1` [Compound 81], the IC50 stood at 0.723 µM.

As to `CCn1cc(NC(=O)c2csc(NC)n2)ccc1=O` [Compound 209], the IC50 is greater than 50 µM.

With `O=C(Nc1cc(F)c(=O)n(CCF)c1)c1cc(Cl)c(Cl)[nH]1` [Compound 159], the IC50 came to 0.759 µM.

In the case of `CCCc1cc(NC(=O)c2cc(Cl)c(Cl)s2)cn(CC)c1=O` [Compound 112], the IC50 was greater than 50 µM.

As to `CCn1cc(NC(=O)c2cc(Cl)c(Cl)n2C)cc(Cl)c1=O` [Compound 133], the IC50 was found to be 2.18 µM.

On to `CCn1cc(NC(=O)c2cc(Cl)c(Cl)[nH]2)cc(F)c1=O` [Compound 167], for which the IC50 was found to be 2.86 µM.

Take `O=C(Nc1cc(F)c(=O)n(CCF)c1)c1cc(Cl)c(CO)s1` [Compound 284]: the IC50 was determined as 30.6 µM.

`O=C(Nc1cc(NCCN2CCOCC2)c(=O)n(CCF)c1)c1cc(Cl)c(Cl)s1` [Compound 256] gave an IC50 of 21.4 µM.

As for `O=C(Nc1cc(F)c(=O)n(CCF)c1)c1csc(NC2CCCC2)n1` [Compound 201], the IC50 was greater than 50 µM.

With `CCn1cc(NC(=O)c2cc(C#N)c(Cl)s2)cc(Cl)c1=O` [Compound 172], the IC50 was found to be 1.07 µM.

In turn, `Cn1c(C(=O)Nc2cc(Cl)c(=O)n(CCF)c2)cnc1Cl` [Compound 194] returned an IC50 of 21.9 µM.

The compound `O=C(Nc1cc(F)c(=O)n(CCF)c1)c1c[nH]c(=O)s1` [Compound 239] yielded an IC50 greater than 50 µM.

With `O=C(Nc1ccc(=O)n(CC(F)(F)F)c1)c1cc(Cl)c(Cl)n1CCF` [Compound 85], the IC50 is 34.7 µM.

`CCn1cc(NC(=O)c2cc(Cl)c(Cl)s2)cc(C(C)C)c1=O` [Compound 111]: the IC50 was greater than 50 µM.

On to `CCn1cc(NC(=O)c2cnc(Cl)s2)cc(F)c1=O` [Compound 130], for which the IC50 worked out at 0.443 µM.

In a further test the target is T1, FL-SMARCA2 (full-length human SMARCA2 isoform 1) (Homo sapiens, UniProt P51531).
T1 construct: FLAG tag (YKDDDDK) (C); made in house; host or cells: Sf21 insect cells (baculovirus, pFastBacI)
T1 sequence (P51531 with tags, fused parts or gaps): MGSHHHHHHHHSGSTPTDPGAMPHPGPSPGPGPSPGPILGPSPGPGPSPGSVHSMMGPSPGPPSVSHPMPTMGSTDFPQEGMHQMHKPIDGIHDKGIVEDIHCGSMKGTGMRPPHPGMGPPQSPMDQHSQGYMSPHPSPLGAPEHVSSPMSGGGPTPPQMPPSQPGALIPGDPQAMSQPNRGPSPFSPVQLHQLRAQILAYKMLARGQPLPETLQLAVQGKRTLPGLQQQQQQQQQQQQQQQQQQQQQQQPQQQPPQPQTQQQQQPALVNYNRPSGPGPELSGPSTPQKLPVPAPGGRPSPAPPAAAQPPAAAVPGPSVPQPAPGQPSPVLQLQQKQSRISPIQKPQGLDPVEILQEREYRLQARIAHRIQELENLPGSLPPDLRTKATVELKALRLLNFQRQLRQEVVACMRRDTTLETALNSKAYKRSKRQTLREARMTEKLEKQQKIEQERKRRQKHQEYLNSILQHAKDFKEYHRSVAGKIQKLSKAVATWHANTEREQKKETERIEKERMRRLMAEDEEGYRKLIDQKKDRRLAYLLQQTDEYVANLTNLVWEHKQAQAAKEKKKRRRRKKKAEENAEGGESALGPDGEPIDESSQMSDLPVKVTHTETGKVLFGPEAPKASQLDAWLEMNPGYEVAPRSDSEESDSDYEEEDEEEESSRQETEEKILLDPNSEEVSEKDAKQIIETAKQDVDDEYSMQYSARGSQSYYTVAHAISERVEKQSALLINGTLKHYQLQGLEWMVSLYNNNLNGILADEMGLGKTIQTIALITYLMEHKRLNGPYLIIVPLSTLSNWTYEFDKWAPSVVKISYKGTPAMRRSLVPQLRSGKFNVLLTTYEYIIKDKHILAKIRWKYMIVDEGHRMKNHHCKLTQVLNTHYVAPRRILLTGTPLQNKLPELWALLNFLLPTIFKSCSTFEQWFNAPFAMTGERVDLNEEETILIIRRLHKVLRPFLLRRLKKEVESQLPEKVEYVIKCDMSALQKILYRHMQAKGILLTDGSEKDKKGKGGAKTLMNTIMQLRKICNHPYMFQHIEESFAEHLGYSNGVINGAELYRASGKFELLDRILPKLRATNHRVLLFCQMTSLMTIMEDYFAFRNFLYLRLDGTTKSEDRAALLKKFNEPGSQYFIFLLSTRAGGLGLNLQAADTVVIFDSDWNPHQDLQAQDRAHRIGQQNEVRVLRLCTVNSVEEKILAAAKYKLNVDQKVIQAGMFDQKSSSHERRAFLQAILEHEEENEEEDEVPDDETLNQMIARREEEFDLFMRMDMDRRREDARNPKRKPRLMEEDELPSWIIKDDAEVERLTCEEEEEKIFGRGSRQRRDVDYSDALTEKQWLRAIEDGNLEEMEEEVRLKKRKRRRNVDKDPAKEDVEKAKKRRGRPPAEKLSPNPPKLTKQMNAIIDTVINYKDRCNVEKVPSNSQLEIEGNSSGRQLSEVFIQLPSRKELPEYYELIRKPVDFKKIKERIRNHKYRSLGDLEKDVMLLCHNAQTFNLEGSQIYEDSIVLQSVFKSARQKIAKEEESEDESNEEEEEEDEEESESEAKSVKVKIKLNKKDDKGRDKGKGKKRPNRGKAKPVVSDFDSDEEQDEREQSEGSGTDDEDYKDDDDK
Description: SMARCA2 ATPase activity assay (ADP-Glo, chicken mononucleosome substrate). Conditions: Table 3a.1; SMARCA2 5 nM, ATP 250 uM, mononucleosome 10 nM. It is filed as biochemical.
`CCn1cc(NC(=O)c2cncc(Cl)c2)ccc1=O` [Compound 17a]: the IC50 is greater than 50 µM.

Consider `COc1ccc2cc(C(=O)Nc3cc(F)c(=O)n(CCF)c3)[nH]c2c1` [Compound 65a], for which the IC50 amounted to 4.91 µM.

As for `CCn1cc(NC(=O)n2cc3ccccc3n2)ccc1=O` [Compound 39a], the IC50 was greater than 50 µM.

In the case of `CCn1cc(NC(=O)c2ccc3cn[nH]c3n2)ccc1=O` [Compound 38a], the IC50 is greater than 50 µM.

Take `CCn1cc(NC(=O)c2ccc3ccccc3n2)ccc1=O` [Compound 26a]: the IC50 was greater than 50 µM.

For `CCn1cc(NC(=O)c2cc3c(n2C)CCC3)ccc1=O` [Compound 34a], the IC50 was greater than 50 µM.

`C[C@H]1OCC(=O)N(Cc2ccccc2)[C@@H]1C(=O)Nc1ccc(=O)n(C)c1` [Compound 7a]: the IC50 was greater than 50 µM.

In turn, `CC(C)COc1ncccc1C(=O)Nc1cc(Cl)c(=O)n(C)c1` [Compound 2a] registered an IC50 greater than 50 µM.

`O=C(Nc1cc(F)c(=O)n(CCF)c1)N1CCCC1` [Compound 52a] gave an IC50 greater than 50 µM.

The compound `CO[C@@H]1CN[C@H](C(=O)Nc2cc(Br)c(=O)n(C)c2)C1` [Compound 9a] yielded an IC50 greater than 50 µM.

Still in this test, the particulars now being: Table 3.1; ATPase assay, enzyme 5 nM, ATP 250 uM, chicken mononucleosome 10 nM, 30 min preincubation.
For the compound `O=C(Nc1ccc(=O)n(CC(F)F)c1)c1cc(Cl)c(Cl)s1` [Compound 81], the IC50 came to 0.223 µM.

As for `CCn1cc(NC(=O)c2csc(NC)n2)ccc1=O` [Compound 209], the IC50 was greater than 50 µM.

For the compound `O=C(Nc1cc(F)c(=O)n(CCF)c1)c1cc(Cl)c(Cl)[nH]1` [Compound 159], the IC50 is 0.194 µM.

`CCCc1cc(NC(=O)c2cc(Cl)c(Cl)s2)cn(CC)c1=O` [Compound 112] returned an IC50 greater than 50 µM.

Turning to `CCn1cc(NC(=O)c2cc(Cl)c(Cl)n2C)cc(Cl)c1=O` [Compound 133], the IC50 turned out to be 0.343 µM.

Take `CCn1cc(NC(=O)c2cc(Cl)c(Cl)[nH]2)cc(F)c1=O` [Compound 167]: the IC50 was found to be 0.609 µM.

`O=C(Nc1cc(F)c(=O)n(CCF)c1)c1cc(Cl)c(CO)s1` [Compound 284] gave an IC50 of 3.21 µM.

With `O=C(Nc1cc(NCCN2CCOCC2)c(=O)n(CCF)c1)c1cc(Cl)c(Cl)s1` [Compound 256], the IC50 came out at 6.34 µM.

Consider `O=C(Nc1cc(F)c(=O)n(CCF)c1)c1csc(NC2CCCC2)n1` [Compound 201], for which the IC50 is greater than 50 µM.

`CCn1cc(NC(=O)c2cc(C#N)c(Cl)s2)cc(Cl)c1=O` [Compound 172] gave an IC50 of 0.238 µM.

Compound `Cn1c(C(=O)Nc2cc(Cl)c(=O)n(CCF)c2)cnc1Cl` [Compound 194] registered an IC50 of 3.12 µM.

The compound `O=C(Nc1cc(F)c(=O)n(CCF)c1)c1c[nH]c(=O)s1` [Compound 239] yielded an IC50 greater than 50 µM.

`O=C(Nc1ccc(=O)n(CC(F)(F)F)c1)c1cc(Cl)c(Cl)n1CCF` [Compound 85] yielded an IC50 of 12 µM.

In turn, `CCn1cc(NC(=O)c2cc(Cl)c(Cl)s2)cc(C(C)C)c1=O` [Compound 111] came in with an IC50 greater than 50 µM.

`CCn1cc(NC(=O)c2cnc(Cl)s2)cc(F)c1=O` [Compound 130] came in with an IC50 of 0.147 µM.

The test is the same for the next values; noted with them: Table 3d.1; ATPase assay, enzyme 5 nM, ATP 250 uM, chicken mononucleosome 10 nM, 30 min preincubation; read-out: FL-SMARCA2 IC>50.
Take `O=C(Nc1cc(F)c(=O)n(CC(F)F)c1)c1cc(Cl)c(C#Cc2cccnc2)s1` [Compound 53d]: the IC50 is greater than 50 µM.

`O=C(Nc1cc(F)c(=O)n(CC(F)F)c1)c1nc(Cl)c(Cl)[nH]1` [Compound 39d]: the IC50 was greater than 50 µM.

Regarding `CCn1c(C)c(NC(=O)c2cc(Cl)c(Cl)s2)ccc1=O` [Compound 25d], the IC50 is greater than 50 µM.

Take `COc1ncc(F)cc1C(=O)Nc1cc(F)c(=O)n(CC(F)F)c1` [Compound 41d]: the IC50 was greater than 50 µM.
